Test results taken from patent publication US10842892B2, “Methods and apparatus for synthesizing imaging agents, and intermediates thereof” (Lantheus Medical Imaging, Inc., priority 2010, dated 2020).
“And” between values parts separate entries of the source, which are not always exact repeats. Identical values can stand only once.

Assays:
healthy volunteers = assay: single-dose dosimetry and biodistribution trial in healthy subjects (MIRD); type: in vivo, human
Method: The following provides results obtained from a study regarding a single-dose dosimetry, biodistribution, and safety trial of imaging agent 1 in healthy subjects. Whole body PET image data for the 12 healthy volunteers were obtained using imaging agent 1 at approximately 10 minutes, 30 minutes, 50 minutes, 2 hours, 2.5 hours, 3.83 hours, and 4.5 hours post injection. Image data were attenuation corrected at the imaging site, and were quantified based on the Medical Internal Radiation Dose (MIRD) 16 methodology by Dosimetry Analysis Laboratory, CDE Dosimetry Services (CDE) to determine kinetic data in all organs showing significant uptake of activity. Dosimetry estimates were created via kinetic modeling of the quantified image data to determine residence times, and the standard MIRD methodology. These estimates were determined using 3 assumptions regarding urinary bladder voiding intervals (2.0, 3.5, and 4.8 hr). Kinetic data, residence times, and the dosimetry estimates are reported for individuals, and as summary statistics.

anesthetized naive dogs = assay: cardiovascular changes in anesthetized naive dogs; type: in vivo, dog; settings: intravenous injection, unpublished data
[1] = tested on: blood brain barrier (BBB); assay: brain uptake with and without blood brain barrier disruption; type: in vivo, rat; settings: rat
Method: Male Sprague-Dawley rats were anesthetized with sodium pentobarbital and the left external carotid artery was cannulated close to the internal and external carotid bifurcation. Using saline as control and 25% D-mannitol as hypertonic solution, each were perfused retrogradely in six animals (0.3 mL/kg/sec) for 30 seconds. Two minutes later, ˜1 mCi imaging agent 1 was injected via tail vein and the brain was imaged with a microPET camera for 30 minutes. […] Following completion of imaging, the brain was harvested, photographed and dissected into left and right hemispheres and cerebellum. The tissue content of imaging agent 1 radioactivity was measured by gamma counter and Evans blue levels were determined by fluorescence method for calculation of the % injected dose/gram tissue and μg Evan blue/gram tissue, respectively.

[2] = 12 healthy volunteers, voiding interval 3.5 hours
[3] = average, voiding interval 3.5 hours

CC(C)(C)n1ncc(OCc2ccc(COCC[18F])cc2)c(Cl)c1=O [imaging agent 1, 2-t-butyl-4-chloro-5-[4-(2-(^18F)fluoroethoxymethyl)-benzyloxy]-2H-pyridazin-3-1]
EDE (effective dose equivalent), Mean (healthy volunteers; 12 healthy volunteers): 8.0E−02 rem/mCi | absorbed dose estimate, Mean, Adrenals (healthy volunteers; 12 healthy volunteers): 5.8E−02 rem/mCi | absorbed dose estimate, Mean, Brain (healthy volunteers; 12 healthy volunteers): 9.4E−02 rem/mCi | absorbed dose estimate, Mean, Breasts (healthy volunteers; 12 healthy volunteers): 3.2E−02 rem/mCi | absorbed dose estimate, Mean, Gallbladder Wall (healthy volunteers; 12 healthy volunteers): 6.4E−02 rem/mCi | absorbed dose estimate, Mean, LLI Wall (healthy volunteers; 12 healthy volunteers): 4.3E−02 rem/mCi | absorbed dose estimate, Mean, Liver (healthy volunteers; 12 healthy volunteers): 1.5E−01 rem/mCi | absorbed dose estimate, Mean, Lungs (healthy volunteers; 12 healthy volunteers): 4.2E−02 rem/mCi | absorbed dose estimate, Mean, Muscle (healthy volunteers; 12 healthy volunteers): 3.8E−02 rem/mCi | absorbed dose estimate, Mean, Osteogenic Cells (healthy volunteers; 12 healthy volunteers): 6.9E−02 rem/mCi | absorbed dose estimate, Mean, Ovaries (healthy volunteers; 12 healthy volunteers): 4.5E−02 rem/mCi | absorbed dose estimate, Mean, Pancreas (healthy volunteers; 12 healthy volunteers): 5.9E−02 rem/mCi | absorbed dose estimate, Mean, Red Marrow (healthy volunteers; 12 healthy volunteers): 6.0E−02 rem/mCi | absorbed dose estimate, Mean, Salivary (healthy volunteers; 12 healthy volunteers): 1.3E−01 rem/mCi | absorbed dose estimate, Mean, Skin (healthy volunteers; 12 healthy volunteers): 2.9E−02 rem/mCi | absorbed dose estimate, Mean, Small Intestine (healthy volunteers; 12 healthy volunteers): 4.7E−02 rem/mCi | absorbed dose estimate, Mean, Spleen (healthy volunteers; 12 healthy volunteers): 6.0E−02 rem/mCi | absorbed dose estimate, Mean, Stomach Wall (healthy volunteers; 12 healthy volunteers): 1.5E−01 rem/mCi | absorbed dose estimate, Mean, Testes (healthy volunteers; 12 healthy volunteers): 3.4E−02 rem/mCi | absorbed dose estimate, Mean, Thymus (healthy volunteers; 12 healthy volunteers): 4.1E−02 rem/mCi | absorbed dose estimate, Mean, Thyroid (healthy volunteers; 12 healthy volunteers): 1.2E−01 rem/mCi | absorbed dose estimate, Mean, Total Body (healthy volunteers; 12 healthy volunteers): 4.5E−02 rem/mCi | absorbed dose estimate, Mean, ULI Wall (healthy volunteers; 12 healthy volunteers): 4.7E−02 rem/mCi | absorbed dose estimate, Mean, Urinary Bladder Wall (healthy volunteers; 12 healthy volunteers): 8.4E−02 rem/mCi | absorbed dose estimate, Mean, Uterus (healthy volunteers; 12 healthy volunteers): 4.6E−02 rem/mCi | ED (effective dose), Mean (healthy volunteers; [2]): 0.071 rem/mCi and 7.1E−02 rem/mCi | absorbed dose estimate, Mean, Heart Wall (healthy volunteers; [2]): 0.18 rem/mCi and 1.8E−01 rem/mCi | absorbed dose estimate, Mean, Kidneys (healthy volunteers; [2]): 0.24 rem/mCi and 2.4E−01 rem/mCi | peak uptake, kidneys (healthy volunteers; average, 12 healthy volunteers): approximately 9.4 % of the injected activity | peak uptake, liver (healthy volunteers; average, 12 healthy volunteers): approximately 19.1 % of the injected activity | absorbed dose, heart wall (healthy volunteers; [3]): 0.048 mSv/MBq | absorbed dose, kidneys (healthy volunteers; [3]): 0.066 mSv/MBq | mean ED (effective dose) (healthy volunteers; voiding interval 3.5 hours): 0.019 mSv/MBq | dose without cardiovascular changes (MAP, HR, left ventricular contractility etc) (anesthetized naive dogs): ≤ 0.01 mg/kg | BBB permeability [1]: high BBB permeability
